In PubChem BioAssay AID2252 (Southern Research Specialized Biocontainment Screening …, 2010):

Test system: THP-1 viability, CellTiter-Glo luminescence, 72 h
Test: PubChem AID 2252

SMILES	EC50 [µM]
Oc1c(CN2CCOCC2)cc(COCc2ccccc2)c2cccnc12	2.24
CC(C)(C)c1ccc(OCCCCCCN2CCNCC2)cc1	13.8
Cc1nc2ccccn2c1C(=O)N/N=C/c1ccc([N+](=O)[O-])o1	13.9
CCCCOc1ccc(C(=O)NNC(=S)NC(=O)CC)cc1	3.29
O=C(CCN1CCC(c2ccccc2)C1)c1ccc2c(c1)OCCO2 (stereo not given)	21.6
Cc1ccc2nsnc2c1S(=O)(=O)NCc1ccc2c(c1)OCO2	< 0.1
CC1CC(=O)c2c(cc3c(-c4c(O)cc(O)c5c(O)c6c(cc45)OC(C)CC6=O)c(O)cc(O)c3c2O)O1 (stereo not given)	< 0.1
Cc1ccc(C)c(NC(=O)c2ccccc2O)c1	35.1
O=C(/C=C/c1ccccc1)NNC(=O)c1ccco1	< 0.1
Cc1cccc2sc(N(CCCN(C)C)C(=O)COc3ccc(Cl)cc3)nc12	24.9
COc1cc2c3cc1Oc1cc(ccc1O)C[C@@H]1c4c(cc(OC)c(O)c4Oc4ccc(cc4)C[C@H]3N(C)CC2)CCN1C	8.8
Cc1ccc2sc(N(CCCN(C)C)C(=O)c3ccc(Br)s3)nc2c1C	21.2
CCOC(=O)c1c(N)sc(C(=O)Nc2ccc3c(c2)OCO3)c1C	42.7
Cc1ccc(-n2[nH]c(C)c(C=NCc3ccncc3)c2=O)cc1	31.6
COc1cc(C(=O)O/N=C2\C=CC(=O)C(C)=C2)cc(OC)c1OC	7.36
CCCCc1ccc(N/C(N)=N/c2nc(C)cc(C)n2)cc1	6.47
COc1ccccc1Nc1c2ccccc2nc2ccccc12	8.38
CC(C)[C@@H](C(=O)NC1CCCC1)N1C(=O)N2CCc3c([nH]c4ccccc34)[C@@]2(C)C1=O	45.5
[O-][n+]1cccc2c(Br)cc(Br)c(O)c21	24.4
CCc1ccc2c(c1)CCCN2C(=O)c1ccccc1C(=O)O	38.3
Cc1ccc(NC(=O)c2ccc([N+](=O)[O-])o2)c(C)c1	12.1
OC(CNCCc1ccc(C(F)(F)F)cc1)COC(c1ccccc1)c1ccccc1 (stereo not given)	15.9
CCCCOc1ccc(CN=C(N)N)cc1Cl	10.1

SMILES	EC50 [µM]
c1ccc2c(c1)OC(CCCN1CCCCC1)c1ccccc1S2 (stereo not given)	21.8
COc1ccc2sc(N(CCCN(C)C)C(=O)c3ccc(S(=O)(=O)N4CCc5ccccc5C4)cc3)nc2c1	4.42
CN(C)CCCN1c2ccccc2Sc2ccc(C(F)(F)F)cc21	14.6
Cn1c(SCC(=O)N/N=C/c2ccc([N+](=O)[O-])s2)nnc1-c1ccc(Cl)cc1	7.71
C(=N\Nc1nc2ccccc2[nH]1)/c1ccc2ncccc2c1	15.6
CCCCCN=C(N)N/N=C/c1c[nH]c2ccc(OC)cc12	2.57
CCCCn1c(=N)n(CC(=O)c2ccc(Br)s2)c2ccccc21	5.43
Cc1ccccc1Nc1cc(C)c2c(O)cccc2n1	5.03
CCOc1ccc(-c2cc(C)[n+](CCN(CC)CC)c(-c3ccc(OCC)cc3)c2)cc1	4.37
CCC(C)(c1ccc(C(=O)OC)s1)c1ccc(C(=O)OC)s1	49.7
CN1CCN(C(c2ccc(Cl)cc2)c2cc(Cl)c3cccnc3c2O)CC1 (stereo not given)	3.11
O=Nc1c(O)c2ccccc2c2ccccc12	3.08
Cc1ccccc1C(=O)NNC(=S)NC(=O)COc1ccccc1	48.1
Oc1ccccc1-c1cc(C(F)(F)C(F)F)[nH]n1	46.4
CCC(=O)c1ccc(OCC(O)CNCCc2ccc(Cl)cc2)cc1 (stereo not given)	28.9
CN1CCN(C2=Cc3cc(Cl)ccc3Sc3cc(F)ccc32)CC1	13.4
O=C(N/N=C/c1cc(Br)ccc1O)c1ccncc1	5.06
CN1CCN(Cc2cc(COCc3ccccc3)c3cccnc3c2O)CC1	2.82
N/C(=N\OC(=O)N1CCOCC1)c1ccccc1	15.5
CN1/C(=C\C=C\C2=[N+](C)c3ccc4ccccc4c3C2(C)C)C(C)(C)c2ccccc21	0.2
Clc1cccc(CN2CCc3c([nH]c4ccccc34)C2)c1Cl	8.82
Cc1ccc(S(=O)(=O)CCC(=O)c2ccc(O)cc2O)cc1	16
CCc1ccc(N2CC(C(=O)N/N=C/c3cc([N+](=O)[O-])ccc3O)CC2=O)cc1 (stereo not given)	11.3

SMILES	EC50 [µM]
CCCCCCCCCCCCCCCC[n+]1ccc(/C=N/O)cc1	0.3
CN1CCN(C2Cc3cc(F)ccc3Sc3ccc(Cl)cc32)CC1 (stereo not given)	14.7
c1ccc2c(c1)CCc1ccccc1C2=C1CCNCC1	25.2
CCOC(=O)N1CCN(Cc2cc(Cl)c3cccnc3c2O)CC1	3.12
C#CC(=O)N(c1cccc(OC)c1)C(C(=O)NC1CCCC1)c1cccs1 (stereo not given)	0.9
N#C/C(=C\c1ccc(O)c(O)c1)C(=O)c1ccc(O)c(O)c1	39.1
Cc1ccc2c(c1)C1CN(C)CCC1N2Sc1ccccc1[N+](=O)[O-] (stereo not given)	21.1
CN1CCN(C2Cc3cc(Cl)ccc3Sc3cc(F)ccc32)CC1 (stereo not given)	8.2
Cc1ccc2c(c1)N/C(=C(\C=C(/Cl)[N+](=O)[O-])[N+](=O)[O-])N2	26.8
Oc1c(CN2CCCCC2)cc(Br)c2cccnc12	2.65
COc1ccc(C(=O)NC(=S)NNC(=O)c2cccc(C)c2)cc1	18.2
Oc1c(C(Nc2ccccn2)c2cccnc2)cc(Cl)c2cccnc12 (stereo not given)	6.1
CC1CCC(C(C)C)C(OC(=O)Cn2c(COc3ccccc3)[n+](C)c3ccccc32)C1 (stereo not given)	2.37
Nc1nonc1-n1nnc(C(=O)N/N=C/c2ccccc2O)c1CN1CCCC1	8.87
OCCNc1nc(Nc2ccccc2)nc2ccccc12	3.06
CC1=C([N+](=O)[O-])C(c2cccc(Br)c2)C2=C(N1)c1ccccc1C2=O (stereo not given)	3.1
Cc1ccc2c(c1)sc(-c1ccc(N(C)C)cc1)[n+]2C	4.02
CN(O)/C=c1/ccc2c(n1)C(=O)C=CC=2	25.5
Cc1cccc(Nc2nc(NCc3ccco3)c3ccccc3n2)c1	4.43
Cc1[nH]nc2c1C(C1CC=CCC1)C(C#N)=C(N)O2 (stereo not given)	13.9
Oc1[nH]c2ccccc2c1N=NC(=S)N1CCOCC1	2.48
Cc1cc([N+](=O)[O-])cc(/C=N\NC(=O)C2COc3ccccc3O2)c1O (stereo not given)	14.3
CC(=O)NC(c1ccc(Cl)cc1Cl)c1ccc2cccnc2c1O (stereo not given)	7.25

SMILES	EC50 [µM]
Cc1nc2ccccc2nc1N/N=C/c1ccc(O)cc1O	3.62
O=C(NCCCNc1ccnc2cc(Cl)ccc12)c1ccccc1F	21.2
Brc1ccc2c(c1)CN1CCCC1=N2	28.6
Oc1cccc(C=NCc2ccccc2)c1O	38.9
Cc1ccc(NC(=O)COc2ccccc2CNC(C)(C)CC(C)(C)C)cc1	9.23
CCOc1ccc(Nc2c3ccccc3nc3ccccc23)cc1	2.49
Cc1ccc2nc(N(CCCN(C)C)C(=O)c3sc4ccccc4c3Cl)sc2c1	28.1
Cc1ccc(C)c(NC(=O)CCC(=O)N/N=C/c2cc([N+](=O)[O-])ccc2O)c1	17.9
CCOc1ccccc1-c1cc(-c2ccccc2)nc2c1c(=O)n(C)c(=O)n2C	< 0.1
CC1CCC(C(C)C)C(OC(=O)C[n+]2cc(-c3ccc(Cl)cc3)n3c2CCC3)C1 (stereo not given)	16.5
CCN(CC)c1ccc(CNc2nc3ccccc3n2CCN2CCCCC2)cc1	16.5
Cc1nc(N=Nc2ccc(O)cc2)n[nH]1	28.2
C#CCOCCOCCOCCNc1nc(N2CCN(C(=O)CCCCCCCCCCNC(=O)[C@H]([C@@H](C)CC)n3cc(CCCCCN)nn3)CC2)nc(N2CCN(C(=O)CCCCCCCCCCNC(=O)[C@@H]([C@H](C)O)n3cc(C)nn3)CC2)n1	13
CCCCCc1ccc(OCCCC[n+]2ccccc2)c(CCCCC)c1	1.48
O=C(Nc1c(Cl)ccc2nsnc12)c1ccc([N+](=O)[O-])o1	3.84
Cc1cccc(C(=O)NNC(=S)NC(=O)c2cccs2)c1	14.6
Cc1ccc(NC2=C(Cl)C(=O)OC2OC(=O)c2ccco2)c(C)c1 (stereo not given)	27.9
CN(C)c1ccc(/C=C/c2ccc3ccccc3[n+]2C)cc1	0.71
CC(C)NC(=O)CN1CCN(Cc2nc(C(c3ccccc3)c3ccccc3)no2)CC1	< 0.1
O=C1c2c(O)ccc(O)c2C(=O)c2c(NCCNCCO)ccc(NCCNCCO)c21	< 0.1
C[n+]1c2n(c3ccccc31)N=C(c1ccc(-c3ccccc3)cc1)CS2	3.89
Oc1c(Br)cc(Br)cc1Oc1ccc(Br)cc1Br	26.9
CCOC(=O)N1CCN(C(=S)NC(=O)c2ccc(Br)cc2)CC1	< 0.1

SMILES	EC50 [µM]
COc1cc(CNC2CCCC2)cc(Cl)c1OCc1ccccc1Cl	14.4
COc1ccc(NC2=NC3(CCCCC3)N=C(N)N2)cc1	27
O=C(N/N=C/c1ccc(O)cc1O)C(=O)N/N=C/c1ccc(O)cc1O	12
CN(C)CC/C=C1\c2ccccc2Sc2cc(F)c(Cl)cc21	10.8
Clc1cc(Br)ccc1OCCCNCc1ccccc1	14.7
N#C/C(=C\c1ccc(O)c(O)c1)C(=O)NCc1ccccc1	27.1
O=C(/C=C/c1ccco1)NC(=S)NNC(=O)c1ccco1	32.3
O=C(Cc1ccc([N+](=O)[O-])cc1)N/N=C/c1ccc([N+](=O)[O-])o1	12.1
CN(C)CC/C=C1/c2cc(F)ccc2Sc2ccc(Cl)cc21	20.5
C#CCOCCOCCOCCNc1nc(N2CCN(C(=O)CCCCCCCCCCNC(=O)Cn3cc(C[C@@H](C)O)nn3)CC2)nc(N2CCN(C(=O)CCCCCCCCCCNC(=O)[C@H](CCCN=C(N)N)n3cc(C[C@@H](C)CC)nn3)CC2)n1	14.3
O=c1cc(-c2ccccc2)cc(-c2ccccc2)n1O	14
CN1CCN(C(c2ccc(C(F)(F)F)cc2)c2ccc3cccnc3c2O)CC1 (stereo not given)	1.36
CCc1cccc(NC(=O)CSC2=NS(=O)(=O)c3ccccc32)c1	15.6
O=C(C[n+]1cc(Br)cc2ccccc21)c1ccc(Cl)cc1	44
CC12CN3CC(C)(CN(C1)C3c1ccc(Br)cc1O)C2 (stereo not given)	< 0.1
CCCC(=O)NC(c1ccco1)c1cc([N+](=O)[O-])c2cccnc2c1O (stereo not given)	22.9
O=C(NNC(=S)NC(=O)c1ccco1)c1ccc(F)cc1	9.47
O=C(CNC(=O)c1cccc(F)c1)N/N=C/c1ccc([N+](=O)[O-])s1	25.6
CCOC(=O)c1c(CSC(=N)N)n(C)c2cc(Br)c(OC(C)=O)cc12	16.9
Cc1cc(N/N=C/c2ccc(O)cc2)c2cccc(C)c2n1	7.3
COc1ccc(C(=O)NC(=S)NNC(=O)c2cccnc2)cc1	21.4
NC1=NC2=C(CCCC2)C2(CCCCC2)S1	37.4
Cc1ccc(-c2csc(NC(=O)C[n+]3cc(-c4ccccc4)n4c3CCC4)n2)cc1	8.47
